From patent publication US11478533B2, “Semaglutide for use in medicine” (Novo Nordisk A/S, priority 2020, dated 2022)

Tested on: subjects with NASH
Assay: Clinical Trial A: liver biopsy histology (NASH-CRN, Kleiner fibrosis classification) at trial week 72
Assay type: in vivo, human
Settings: for Worsening of liver fibrosis stage determined via liver biopsy at end of trial compared to baseline, Proportion of subjects: all randomised subjects
Description: NASH diagnosis may further include histological evidence of NASH with an NAFLD activity score (NAS) of more than 4. In some embodiments the term “NAFLD activity score” as used herein refers to the unweighted sum of the individual scores of steatosis (score 0-3), lobular inflammation (score 0-3), and hepatocyte ballooning (score 0-2) determined by liver biopsy histology according to NASH-CRN; thus, NAS is in the range of 0 to 8. In some embodiments NASH-CRN is as published in Kleiner et al. Hepatology. 2005; 41(6):1313-21 (e.g. Table 1) and Brunt et al. World J Gastroenterol. 2010; 16(42):5286-96. In some embodiments the term “steatosis” as used herein refers to liver biopsy histology showing low- to medium-power evaluation of parenchymal involvement by steatosis and is one of the stages with a score selected from the group consisting of “0” (<5%), “1” (5%-33%), “2” (>33%-66%), and “3” (>66%) according to NASH-CRN. In some embodiments the term “lobular inflammation” as used herein refers to the overall assessment of all inflammatory foci in liver biopsy histology and is one of the stages with a score selected from the group consisting of “0” (no foci), “1” (<2 foci per 200 times magnification field), “2” (2-4 foci per 200 times magnification field) and “3” (>4 foci per 200 times magnification field) according to NASH-CRN. In some embodiments the term “hepatocyte ballooning” as used herein refers to liver biopsy histology showing one of the stages with a score selected from the group consisting of “0” (none), “1” (few balloon cells) and “2” (many cells/prominent ballooning) according to NASH-CRN.
In some embodiments the method of the invention provides resolution of NASH. In some embodiments the term “resolution of NASH” as used herein refers to the subject no longer fulfilling the criteria for a NASH diagnosis. In some embodiments the term “resolution of NASH” refers to a liver biopsy histology showing (i) no more than mild residual inflammatory cells (i.e. inflammation score 0 or 1 according to NASH-CRN), (ii) no hepatocyte ballooning (i.e. hepatocyte ballooning score of 0 according to NASH-CRN), and (iii) any value for steatosis (i.e. steatosis score of 0-3 according to NASH-CRN). In some embodiments the method of the invention provides an improvement of lobular inflammation and/or hepatocyte ballooning. In some embodiments the term “improvement of lobular inflammation” as used herein refers to reduction by at least one stage of lobular inflammation (score 0-3) as defined herein; for example, reduction from a score 3 to a score 1. In some embodiments the term “improvement of hepatocyte ballooning” as used herein refers to reduction by at least one stage of hepatocyte ballooning (score 0-2) as defined herein; for example, reduction from a score 2 to a score 0.
In some embodiments the term “fibrosis” as used herein refers to the fibrosis stage in NASH described by the Kleiner fibrosis classification. In some embodiments the terms “Kleiner fibrosis classification” or “fibrosis stage” are used interchangeably herein and refer to the classification as defined in Kleiner et al. Hepatology, 2005; 41(6):1313-21 which consists of the stages selected from the group consisting of “0” (absence of fibrosis), “1” (portal/perisinusoidal fibrosis), “2” (perisinusoidal and portal/periportal fibrosis), “3” (septal or bridging fibrosis), and “4” (cirrhosis). In some embodiments the method of the invention provides no worsening of liver fibrosis. In some embodiments the terms “no worsening of liver fibrosis” or “no worsening of liver fibrosis stage” as used interchangeably herein refers to no increase of at least one stage of the Kleiner fibrosis classification.
A 72-week, randomised, double-blind, placebo-controlled, six-armed, parallel group, multicentre, multi-national phase 2 trial comparing once daily (OD) administration of semaglutide in three different doses (0.1 mg, 0.2 mg and 0.4 mg) with placebo in subjects with NASH was carried out. […]

[1] = 0.1 mg OD s.c., week 72, Fibrosis stage 1-3 at baseline (all randomised subjects)
[2] = 0.1 mg OD s.c., week 72, Fibrosis stage 1 at baseline
[3] = 0.1 mg OD s.c., week 72, Fibrosis stage 2 at baseline
[4] = 0.1 mg OD s.c., week 72, Fibrosis stage 2 or 3 at baseline
[5] = 0.1 mg OD s.c., week 72, Fibrosis stage 3 at baseline
[6] = 0.2 mg OD s.c., week 72, Fibrosis stage 1-3 at baseline (all randomised subjects)
[7] = 0.2 mg OD s.c., week 72, Fibrosis stage 1 at baseline
[8] = 0.2 mg OD s.c., week 72, Fibrosis stage 2 at baseline
[9] = 0.2 mg OD s.c., week 72, Fibrosis stage 2 or 3 at baseline
[10] = 0.2 mg OD s.c., week 72, Fibrosis stage 3 at baseline
[11] = 0.4 mg OD s.c., week 72, Fibrosis stage 1-3 at baseline (all randomised subjects)
[12] = 0.4 mg OD s.c., week 72, Fibrosis stage 1 at baseline
[13] = 0.4 mg OD s.c., week 72, Fibrosis stage 2 at baseline
[14] = 0.4 mg OD s.c., week 72, Fibrosis stage 2 or 3 at baseline
[15] = 0.4 mg OD s.c., week 72, Fibrosis stage 3 at baseline
[16] = all tested semaglutide dosages, liver fibrosis stage 1-3 at baseline

With “N-epsilon26-[2-(2-{2-[2-(2-{2-[(S)-4-Carboxy-4-(17-carboxyheptadecanoyl-amino)butyrylamino]ethoxy}ethoxy)acetylamino]ethoxy}ethoxy)acetyl] [Aib8, Arg34]GLP-1-(7-37) [Semaglutide]” the “Improvement of hepatocyte ballooning at end of trial compared to baseline, proportion of subjects” value [1] was 61.3%, the “Improvement of lobular inflammation at end of trial compared to baseline, proportion of subjects” value [1] was 41.3% and the “Improvement of steatosis at end of trial compared to baseline, proportion of subjects” value [1] was 52.5%. For the same substance, the “Resolution of NASH and no worsening in liver fibrosis at end of trial, proportion of subjects” value [1] was 43.8 (0.0023) %, the “Resolution of NASH at end of trial, proportion of subjects” value (shortened to “Resolution of NASH at end of trial”) [1] was 47.5% and the “Improvement of hepatocyte ballooning at end of trial compared to baseline, proportion of subjects” value [2] was 60.9%. For the same substance, the “Improvement of lobular inflammation at end of trial compared to baseline, proportion of subjects” value [2] was 34.8%, the “Improvement of steatosis at end of trial compared to baseline, proportion of subjects” value [2] was 56.5% and the “Resolution of NASH and no worsening in liver fibrosis at end of trial, proportion of subjects” value [2] was 52.2%. The “Resolution of NASH at end of trial” value [2] was 60.9%, the “Improvement of hepatocyte ballooning at end of trial compared to baseline, proportion of subjects” value [3] was 66.7% and the “Improvement of lobular inflammation at end of trial compared to baseline, proportion of subjects” value [3] was 33.3%. For the same substance, the “Improvement of steatosis at end of trial compared to baseline, proportion of subjects” value [3] was 61.1%, the “Resolution of NASH and no worsening in liver fibrosis at end of trial, proportion of subjects” value [3] was 55.6% and the “Resolution of NASH at end of trial” value [3] was 55.6%. The “Improvement of hepatocyte ballooning at end of trial compared to baseline, proportion of subjects” value [4] was 61.4%, the “Improvement of lobular inflammation at end of trial compared to baseline, proportion of subjects” value [4] was 43.9% and the “Improvement of steatosis at end of trial compared to baseline, proportion of subjects” value [4] was 50.9%. The “Resolution of NASH and no worsening in liver fibrosis at end of trial, proportion of subjects” value [4] was 40.4 (0.0100) %, the “Resolution of NASH at end of trial” value [4] was 42.1% and the “Improvement of hepatocyte ballooning at end of trial compared to baseline, proportion of subjects” value [5] was 59.0%. The “Improvement of lobular inflammation at end of trial compared to baseline, proportion of subjects” value [5] was 48.7%, the “Improvement of steatosis at end of trial compared to baseline, proportion of subjects” value [5] was 46.2% and the “Resolution of NASH and no worsening in liver fibrosis at end of trial, proportion of subjects” value [5] was 33.3%. For the same substance, the “Resolution of NASH at end of trial” value [5] was 35.9%, the “Worsening of liver fibrosis stage determined via liver biopsy at end of trial compared to baseline, Proportion of subjects” value (0.1 mg OD s.c., week 72) was 10.0% and the “Improvement of hepatocyte ballooning at end of trial compared to baseline, proportion of subjects” value [6] was 70.5%. For the same substance, the “Improvement of lobular inflammation at end of trial compared to baseline, proportion of subjects” value [6] was 47.4%, the “Improvement of steatosis at end of trial compared to baseline, proportion of subjects” value [6] was 60.3% and the “Resolution of NASH and no worsening in liver fibrosis at end of trial, proportion of subjects” value [6] was 38.5 (0.0138) %. For the same substance, the “Resolution of NASH at end of trial” value [6] was 46.2%, the “Improvement of hepatocyte ballooning at end of trial compared to baseline, proportion of subjects” value [7] was 84.2% and the “Improvement of lobular inflammation at end of trial compared to baseline, proportion of subjects” value [7] was 42.1%. The “Improvement of steatosis at end of trial compared to baseline, proportion of subjects” value [7] was 63.2%, the “Resolution of NASH and no worsening in liver fibrosis at end of trial, proportion of subjects” value [7] was 47.4% and the “Resolution of NASH at end of trial” value [7] was 68.4%. The “Improvement of hepatocyte ballooning at end of trial compared to baseline, proportion of subjects” value [8] was 72.2%, the “Improvement of lobular inflammation at end of trial compared to baseline, proportion of subjects” value [8] was 38.9% and the “Improvement of steatosis at end of trial compared to baseline, proportion of subjects” value [8] was 66.7%. For the same substance, the “Resolution of NASH and no worsening in liver fibrosis at end of trial, proportion of subjects” value [8] was 55.6%, the “Resolution of NASH at end of trial” value [8] was 61.1% and the “Improvement of hepatocyte ballooning at end of trial compared to baseline, proportion of subjects” value [9] was 66.1%. The “Improvement of lobular inflammation at end of trial compared to baseline, proportion of subjects” value [9] was 49.2%, the “Improvement of steatosis at end of trial compared to baseline, proportion of subjects” value [9] was 59.3% and the “Resolution of NASH and no worsening in liver fibrosis at end of trial, proportion of subjects” value [9] was 35.6 (0.0359) %. The “Resolution of NASH at end of trial” value [9] was 39.0%, the “Improvement of hepatocyte ballooning at end of trial compared to baseline, proportion of subjects” value [10] was 63.4% and the “Improvement of lobular inflammation at end of trial compared to baseline, proportion of subjects” value [10] was 53.7%. The “Improvement of steatosis at end of trial compared to baseline, proportion of subjects” value [10] was 56.1%, the “Resolution of NASH and no worsening in liver fibrosis at end of trial, proportion of subjects” value [10] was 26.8% and the “Resolution of NASH at end of trial” value [10] was 29.3%. For the same substance, the “Worsening of liver fibrosis stage determined via liver biopsy at end of trial compared to baseline, Proportion of subjects” value (0.2 mg OD s.c., week 72) was 7.7%, the “Improvement of hepatocyte ballooning at end of trial compared to baseline, proportion of subjects” value [11] was 74.4% and the “Improvement of lobular inflammation at end of trial compared to baseline, proportion of subjects” value [11] was 37.8%. The “Improvement of steatosis at end of trial compared to baseline, proportion of subjects” value [11] was 63.4%, the “Resolution of NASH and no worsening in liver fibrosis at end of trial, proportion of subjects” value [11] was 56.1 (<0.0001) % and the “Resolution of NASH at end of trial” value [11] was 61.0%. For the same substance, the “Improvement of hepatocyte ballooning at end of trial compared to baseline, proportion of subjects” value [12] was 57.7%, the “Improvement of lobular inflammation at end of trial compared to baseline, proportion of subjects” value [12] was 15.4% and the “Improvement of steatosis at end of trial compared to baseline, proportion of subjects” value [12] was 53.8%. For the same substance, the “Resolution of NASH and no worsening in liver fibrosis at end of trial, proportion of subjects” value [12] was 50.0%, the “Resolution of NASH at end of trial” value [12] was 53.8% and the “Improvement of hepatocyte ballooning at end of trial compared to baseline, proportion of subjects” value [13] was 78.6%. The “Improvement of lobular inflammation at end of trial compared to baseline, proportion of subjects” value [13] was 50.0%, the “Improvement of steatosis at end of trial compared to baseline, proportion of subjects” value [13] was 71.4% and the “Resolution of NASH and no worsening in liver fibrosis at end of trial, proportion of subjects” value [13] was 64.3%. The “Resolution of NASH at end of trial” value [13] was 78.6%, the “Improvement of hepatocyte ballooning at end of trial compared to baseline, proportion of subjects” value [14] was 82.1% and the “Improvement of lobular inflammation at end of trial compared to baseline, proportion of subjects” value [14] was 48.2%. The “Improvement of steatosis at end of trial compared to baseline, proportion of subjects” value [14] was 67.9%, the “Resolution of NASH and no worsening in liver fibrosis at end of trial, proportion of subjects” value [14] was 58.9 (<0.0001) % and the “Resolution of NASH at end of trial” value [14] was 64.3%. The “Improvement of hepatocyte ballooning at end of trial compared to baseline, proportion of subjects” value [15] was 83.3%, the “Improvement of lobular inflammation at end of trial compared to baseline, proportion of subjects” value [15] was 47.6% and the “Improvement of steatosis at end of trial compared to baseline, proportion of subjects” value [15] was 66.7%. The “Resolution of NASH and no worsening in liver fibrosis at end of trial, proportion of subjects” value [15] was 75.1%, the “Resolution of NASH at end of trial” value [15] was 59.5% and the “Worsening of liver fibrosis stage determined via liver biopsy at end of trial compared to baseline, Proportion of subjects” value (0.4 mg OD s.c., week 72) was 4.9%. For the same substance, the “Worsening of liver fibrosis stage compared to placebo (in words)” value (all semaglutide dosages tested, week 72) was “lower proportion of subjects”, the “Resolution of NASH and no worsening in liver fibrosis compared to placebo (in words)” value [16] was “achieved by significantly more subjects compared to placebo” and the “Resolution of NASH compared to placebo (in words)” value [16] was “achieved by significantly more subjects compared to placebo”.
